From ChEMBL document CHEMBL1201862, “PubChem BioAssay data set” (2004)
Activity calls are given as the source filed them.

What was measured:
Cytochrome P450 2C19 = Cytochrome P450 2C19 (Homo sapiens, UniProt P33261); assay: qHTS Assay for Inhibitors and Substrates of Cytochrome P450 2C19. [Related pubchem assays: 410 ]; assay type: ADME; details: read-out: Potency
Cytochrome P450 3A4 = Cytochrome P450 3A4 (Homo sapiens, UniProt P08684); details: Potency;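 further: confirmatory qHTS run detecting inhibitors and substrates of CYP3A4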
Chain of Cytochrome P450 3A4 (P08684 whole entry): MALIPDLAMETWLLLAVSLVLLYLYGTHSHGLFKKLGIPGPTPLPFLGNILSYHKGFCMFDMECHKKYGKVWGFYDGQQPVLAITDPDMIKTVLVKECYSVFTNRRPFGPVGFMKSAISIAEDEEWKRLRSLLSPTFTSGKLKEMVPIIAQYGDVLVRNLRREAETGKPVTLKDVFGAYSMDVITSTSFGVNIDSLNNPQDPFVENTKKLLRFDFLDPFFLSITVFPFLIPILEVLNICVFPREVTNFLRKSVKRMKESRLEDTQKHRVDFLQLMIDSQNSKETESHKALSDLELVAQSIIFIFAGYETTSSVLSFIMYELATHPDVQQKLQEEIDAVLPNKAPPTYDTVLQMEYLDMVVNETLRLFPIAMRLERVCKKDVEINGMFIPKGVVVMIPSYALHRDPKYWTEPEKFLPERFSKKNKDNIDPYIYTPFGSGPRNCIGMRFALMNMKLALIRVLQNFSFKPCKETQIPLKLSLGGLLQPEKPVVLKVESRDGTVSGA

[1] = microbe, parasite or virus in culture; assay type: functional; details: Mycobacterium tuberculosis
[2] = growth suppression of PTEN-null colon cells, dose response, cell-based, HCT116 PTEN knockout (AID 1047); assay type: functional;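 further: HCT116 colon tumor cells with PTEN knocked out; cells exposed to compound for 60 hours before readout; potency for loss of cell viability measured by luminescence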
[3] = growth suppression of beta-catenin-knockout colon cells, dose response, cell-based, HCT116, human colon tumor (AID 1045); assay type: functional;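 further: HCT116 colon tumor cells with beta catenin knocked out; cells exposed to compound for 60 hours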
Ephrin type-A receptor 4 = Ephrin type-A receptor 4 (Mus musculus, UniProt Q03137); assay: inhibitors of EphA4 binding to KYL peptide, primary screen, biochemical, colorimetric, mouse EphA4 (AID 689); assay type: functional
Chain of Ephrin type-A receptor 4 (Q03137 whole entry): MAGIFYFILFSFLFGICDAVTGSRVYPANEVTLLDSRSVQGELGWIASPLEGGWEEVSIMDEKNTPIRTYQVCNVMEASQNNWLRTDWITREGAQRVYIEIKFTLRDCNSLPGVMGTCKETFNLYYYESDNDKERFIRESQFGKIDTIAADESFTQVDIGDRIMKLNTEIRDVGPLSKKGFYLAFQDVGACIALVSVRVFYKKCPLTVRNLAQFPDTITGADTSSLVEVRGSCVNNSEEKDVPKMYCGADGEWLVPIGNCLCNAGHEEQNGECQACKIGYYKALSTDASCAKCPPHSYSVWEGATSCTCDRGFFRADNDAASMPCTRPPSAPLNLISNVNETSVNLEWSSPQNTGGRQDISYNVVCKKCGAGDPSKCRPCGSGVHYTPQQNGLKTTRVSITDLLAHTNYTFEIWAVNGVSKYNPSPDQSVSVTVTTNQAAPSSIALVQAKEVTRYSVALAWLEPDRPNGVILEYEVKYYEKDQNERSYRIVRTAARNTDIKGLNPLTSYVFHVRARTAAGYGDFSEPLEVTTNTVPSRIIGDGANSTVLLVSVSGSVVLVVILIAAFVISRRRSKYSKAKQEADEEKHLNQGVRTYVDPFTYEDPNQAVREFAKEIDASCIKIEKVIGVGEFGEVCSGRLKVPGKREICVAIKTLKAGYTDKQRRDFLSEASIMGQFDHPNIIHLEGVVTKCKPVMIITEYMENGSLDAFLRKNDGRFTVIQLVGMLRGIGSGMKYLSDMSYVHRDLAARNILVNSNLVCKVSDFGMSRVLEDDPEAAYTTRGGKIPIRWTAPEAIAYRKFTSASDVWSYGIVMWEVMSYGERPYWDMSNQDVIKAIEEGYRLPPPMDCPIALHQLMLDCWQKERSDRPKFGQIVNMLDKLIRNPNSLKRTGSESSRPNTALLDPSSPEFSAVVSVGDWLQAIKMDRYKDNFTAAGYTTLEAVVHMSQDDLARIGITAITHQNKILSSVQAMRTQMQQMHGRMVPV

[4] = molecular target: Heat shock protein HSP 90-alpha (Homo sapiens, UniProt P07900); assay type: functional, organism-based
Cytochrome P450 2D6 = Cytochrome P450 2D6 (Homo sapiens, UniProt P10635);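 further: CYP2D6 member of a cytochrome P450 panel assay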
Chain of Cytochrome P450 2D6 (P10635 whole entry): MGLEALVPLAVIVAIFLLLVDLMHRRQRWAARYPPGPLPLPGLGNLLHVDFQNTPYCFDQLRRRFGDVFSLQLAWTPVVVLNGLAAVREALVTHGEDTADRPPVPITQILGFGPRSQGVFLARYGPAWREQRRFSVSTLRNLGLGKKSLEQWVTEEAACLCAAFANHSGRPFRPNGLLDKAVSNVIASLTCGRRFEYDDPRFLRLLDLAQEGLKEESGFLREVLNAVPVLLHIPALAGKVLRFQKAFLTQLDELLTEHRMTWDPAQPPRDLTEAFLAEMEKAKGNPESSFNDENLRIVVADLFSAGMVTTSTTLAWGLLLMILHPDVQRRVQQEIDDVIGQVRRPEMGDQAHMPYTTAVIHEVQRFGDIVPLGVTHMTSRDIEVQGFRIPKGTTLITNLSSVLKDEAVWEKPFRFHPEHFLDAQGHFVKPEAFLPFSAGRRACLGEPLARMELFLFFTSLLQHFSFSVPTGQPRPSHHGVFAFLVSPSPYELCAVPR

HEK293 [5] = assay: NOD1 signaling inhibitors, primary screen, cell-based, luminescence, uHTS (AID 1578); assay type: functional; details: Homo sapiens
[6] = molecular target: E3 ubiquitin-protein ligase Mdm2 (Homo sapiens, UniProt Q00987); assay: enhancers of MDM2-luciferase reporter signal, concentration-effect titration, project on inhibitors of MDM2 ubiquitin ligase, cellular assay, luminescent readout, 384-well plate format (AID 1394); assay type: functional;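 further: MDM2 E3 inhibitors raise luminescence so EC50 is for signal enhancement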
Chain of E3 ubiquitin-protein ligase Mdm2 (Q00987 whole entry): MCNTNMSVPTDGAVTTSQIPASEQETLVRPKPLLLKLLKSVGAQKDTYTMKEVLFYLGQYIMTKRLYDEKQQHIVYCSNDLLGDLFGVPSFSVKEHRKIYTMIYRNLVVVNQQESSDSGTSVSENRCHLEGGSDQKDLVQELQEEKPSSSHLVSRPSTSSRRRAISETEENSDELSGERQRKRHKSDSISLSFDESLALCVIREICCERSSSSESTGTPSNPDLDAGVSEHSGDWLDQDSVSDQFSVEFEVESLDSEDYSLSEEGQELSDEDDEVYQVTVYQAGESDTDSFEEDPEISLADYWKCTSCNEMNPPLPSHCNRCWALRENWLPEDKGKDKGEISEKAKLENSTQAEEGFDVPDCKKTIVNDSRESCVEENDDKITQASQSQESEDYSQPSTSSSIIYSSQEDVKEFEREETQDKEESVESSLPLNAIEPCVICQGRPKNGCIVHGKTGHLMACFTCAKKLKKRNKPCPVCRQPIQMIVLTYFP

BJ [7] = assay: cytotoxicity toward BJ-TERT fibroblasts, dose response, cell-based, RAS-independent, luminescence (AID 1933); assay type: functional; details: Homo sapiens
HEK293 [8] = assay: cells; assay type: functional, cell-based; details: Homo sapiens
BJ [9] = assay: cells; assay type: functional, cell-based; details: Homo sapiens
HEK293 [10] = assay: cells; assay type: functional, cell-based; details: Homo sapiens; remark: listed apart in the source
[11] = molecular target: Nucleotide-binding oligomerization domain-containing protein 2 (Homo sapiens, UniProt Q9HC29); assay: NOD2 signaling inhibitors, cell-based, luminescence, uHTS, HEK293 (AID 1566); assay type: functional
HEK293 [12] = assay: NOD2 signaling inhibitors in MDP-stimulated cells, cell-based, uHTS, luminescence (AID 2001); assay type: functional; details: Homo sapiens
HEK293 [13] = assay: cells; assay type: functional, cell-based; details: Homo sapiens; remark: listed apart in the source
BJ [14] = assay: cytotoxicity toward BJ-TERT-LT-ST fibroblasts, dose response, cell-based, RAS-independent, luminescence (AID 1935); assay type: functional; details: Homo sapiens;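 further: BJ fibroblasts immortalized with TERT plus LT and ST oncogenes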
[15] = cytotoxicity toward DRD oncogenic fibroblasts, dose response, cell-based, non-viral oncogenic, luminescence (AID 1934); assay type: functional; details: Homo sapiens
[16] = molecular target: Beta-2 adrenergic receptor (Homo sapiens, UniProt P07550); assay: beta2AR agonists driving receptor internalization, dose response, cell-based, FAP fluorogen, flow cytometry, cherry pick 1 (AID 588763); assay type: functional
Melanocortin receptor 4 = Melanocortin receptor 4 (Homo sapiens, UniProt P32245); assay: MC4R antagonist potency on cAMP, dose response, cell-based, TR-FRET, biased antagonists (AID 602298); assay type: functional;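 further: antagonist potency against agonist-stimulated cAMP production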
Chain of Melanocortin receptor 4 (P32245 whole entry): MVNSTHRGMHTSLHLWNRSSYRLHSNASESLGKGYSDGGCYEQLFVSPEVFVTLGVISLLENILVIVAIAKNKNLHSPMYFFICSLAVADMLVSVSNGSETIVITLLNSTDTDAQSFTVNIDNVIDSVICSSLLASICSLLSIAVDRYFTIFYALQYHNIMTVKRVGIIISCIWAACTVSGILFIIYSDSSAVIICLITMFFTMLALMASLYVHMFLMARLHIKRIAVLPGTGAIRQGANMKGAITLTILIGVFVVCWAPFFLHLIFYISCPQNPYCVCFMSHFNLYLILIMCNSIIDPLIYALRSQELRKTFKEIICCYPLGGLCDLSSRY

[17] = nonselective inhibitors of cellular cAMP signaling, dose response, counter-screen for MC4R biased antagonist project, cell-based, TR-FRET cAMP detection (AID 602305); assay type: functional;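 further: U2OS cells stimulated with forskolin near its EC80 as the cAMP inducer; potency is for inhibition of forskolin-stimulated cAMP signaling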
[18] = molecular target: Glyceraldehyde-3-phosphate dehydrogenase (Homo sapiens, UniProt P04406)
Chain of Glyceraldehyde-3-phosphate dehydrogenase (P04406 whole entry): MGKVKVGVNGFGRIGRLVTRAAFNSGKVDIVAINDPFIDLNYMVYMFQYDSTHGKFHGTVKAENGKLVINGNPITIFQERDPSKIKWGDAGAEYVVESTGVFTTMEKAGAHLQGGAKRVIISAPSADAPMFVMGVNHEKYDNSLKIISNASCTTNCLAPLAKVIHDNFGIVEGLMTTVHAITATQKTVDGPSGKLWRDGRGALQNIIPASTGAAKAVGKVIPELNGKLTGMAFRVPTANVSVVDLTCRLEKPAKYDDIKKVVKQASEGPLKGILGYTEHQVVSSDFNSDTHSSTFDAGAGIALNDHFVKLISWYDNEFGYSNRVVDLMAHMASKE

Bcl-2-related protein A1 [19] = molecular target: T1, Bcl-2-related protein A1 (Mus musculus, UniProt Q07440); assay: Bfl-1 inhibitors blocking BH3 peptide binding, confirmation, biochemical, TR-FRET, mouse Bfl-1 (AID 621);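 further: TR-FRET binding of GST-Bfl-1 to FITC-labelled Bid peptide via terbium antibody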
T1 sequence (Q07440 whole entry): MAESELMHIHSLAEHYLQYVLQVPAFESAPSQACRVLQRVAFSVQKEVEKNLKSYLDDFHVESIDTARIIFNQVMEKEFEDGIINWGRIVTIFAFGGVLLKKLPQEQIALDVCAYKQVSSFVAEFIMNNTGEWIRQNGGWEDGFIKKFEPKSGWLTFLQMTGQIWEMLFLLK

Bcl-2-related protein A1 [20] = molecular target: T1, Bcl-2-related protein A1; assay: Bfl-1 binding inhibitors, SAR follow-up, biochemical, fluorescence polarization (AID 1070)
Estrogen receptor beta = Estrogen receptor beta (Homo sapiens, UniProt Q92731);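 further: recombinant ER-beta bound to coactivator SRC1 peptide in presence of estradiol agonist; inhibitors block coactivator peptide binding and lower the FRET signal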
Chain of Estrogen receptor beta (Q92731 whole entry): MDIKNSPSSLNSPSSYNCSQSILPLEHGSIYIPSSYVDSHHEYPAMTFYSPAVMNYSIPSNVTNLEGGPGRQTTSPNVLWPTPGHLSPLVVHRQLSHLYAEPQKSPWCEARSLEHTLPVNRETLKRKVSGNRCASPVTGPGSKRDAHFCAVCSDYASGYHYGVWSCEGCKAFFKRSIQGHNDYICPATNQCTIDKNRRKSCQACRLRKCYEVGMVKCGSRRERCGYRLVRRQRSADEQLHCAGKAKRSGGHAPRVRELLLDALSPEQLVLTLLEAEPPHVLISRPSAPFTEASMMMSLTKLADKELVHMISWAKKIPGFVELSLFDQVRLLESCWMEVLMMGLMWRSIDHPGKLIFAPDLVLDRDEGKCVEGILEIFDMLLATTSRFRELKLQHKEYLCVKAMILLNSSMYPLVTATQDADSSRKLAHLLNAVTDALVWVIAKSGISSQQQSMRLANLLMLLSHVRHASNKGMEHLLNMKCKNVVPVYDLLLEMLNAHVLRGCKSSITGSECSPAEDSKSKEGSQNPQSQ

[21] = molecular target: DNA dC->dU-editing enzyme APOBEC-3A (Homo sapiens, UniProt P31941); assay: Dose Response confirmation of small molecule APOBEC3A DNA Deaminase Inhibitors via a fluorescence-based single-stranded DNA deaminase assay. [Related pubchem assays (depositor defined):AID493011, AID493024]; assay type: functional
Chain of DNA dC->dU-editing enzyme APOBEC-3A (P31941 whole entry): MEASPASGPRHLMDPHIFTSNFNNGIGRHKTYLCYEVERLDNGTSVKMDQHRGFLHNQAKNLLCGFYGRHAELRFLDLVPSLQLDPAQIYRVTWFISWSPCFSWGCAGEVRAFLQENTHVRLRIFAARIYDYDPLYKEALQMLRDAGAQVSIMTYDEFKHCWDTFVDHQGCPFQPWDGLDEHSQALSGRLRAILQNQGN

[22] = molecular target: DNA dC->dU-editing enzyme APOBEC-3G (Homo sapiens, UniProt Q9HC16); assay type: functional;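 further: Dose-response counterscreen measuring inhibition of APOBEC3G DNA deaminase activity, run while confirming APOBEC3A inhibitors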
Chain of DNA dC->dU-editing enzyme APOBEC-3G (Q9HC16 whole entry, the tested form may be a part): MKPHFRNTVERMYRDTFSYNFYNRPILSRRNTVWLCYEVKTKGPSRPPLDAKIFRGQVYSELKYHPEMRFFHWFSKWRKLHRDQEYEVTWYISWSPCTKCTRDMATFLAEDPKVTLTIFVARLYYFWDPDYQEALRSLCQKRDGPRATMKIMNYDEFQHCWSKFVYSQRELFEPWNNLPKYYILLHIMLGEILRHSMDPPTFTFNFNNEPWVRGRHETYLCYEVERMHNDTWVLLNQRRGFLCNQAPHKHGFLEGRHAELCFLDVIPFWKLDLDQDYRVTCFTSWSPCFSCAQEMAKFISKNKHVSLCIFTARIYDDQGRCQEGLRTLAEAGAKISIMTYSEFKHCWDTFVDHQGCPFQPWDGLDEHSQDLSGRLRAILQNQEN

[23] = molecular target: T2, Carboxy-terminal domain RNA polymerase II polypeptide A small phosphatase 1 (Homo sapiens, UniProt Q9GZU7); assay: inhibitors of CTDSP1, concentration-response testing, biochemical assay, absorbance-based, actives from ultra-high-throughput screening (AID 540297); assay type: functional
T2 sequence (Q9GZU7 whole entry): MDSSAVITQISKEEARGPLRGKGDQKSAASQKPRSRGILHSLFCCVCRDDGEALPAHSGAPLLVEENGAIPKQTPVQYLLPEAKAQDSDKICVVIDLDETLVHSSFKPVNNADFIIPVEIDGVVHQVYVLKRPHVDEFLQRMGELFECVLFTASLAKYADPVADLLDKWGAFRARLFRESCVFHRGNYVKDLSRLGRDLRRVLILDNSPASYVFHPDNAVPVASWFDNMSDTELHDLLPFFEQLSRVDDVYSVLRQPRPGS

[24] = molecular target: T3, Calpain-2 catalytic subunit (Sus scrofa, UniProt P43367); assay: pig calpain II inhibitor potency, dose response, biochemical, fluorogenic peptide substrate (AID 1420); assay type: functional
T3 sequence (P43367 whole entry): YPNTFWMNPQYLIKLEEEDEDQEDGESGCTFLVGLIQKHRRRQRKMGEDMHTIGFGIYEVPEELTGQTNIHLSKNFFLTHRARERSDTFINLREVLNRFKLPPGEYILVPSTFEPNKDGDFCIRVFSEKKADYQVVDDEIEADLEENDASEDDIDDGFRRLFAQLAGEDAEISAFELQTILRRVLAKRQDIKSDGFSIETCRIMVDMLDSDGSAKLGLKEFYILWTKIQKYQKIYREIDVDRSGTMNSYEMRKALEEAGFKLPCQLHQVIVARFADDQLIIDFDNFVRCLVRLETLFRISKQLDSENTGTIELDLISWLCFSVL

X-box-binding protein 1 = X-box-binding protein 1 (Homo sapiens, UniProt P17861); assay type: functional, Cricetulus griseus;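 further: confirmatory dose-response counter-screen serving a CHOP assay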
Vero = Vero cell cytotoxicity, cytotoxicity control for flavivirus capping enzyme inhibitors (AID 588742); assay type: functional; details: Chlorocebus sabaeus
[25] = HeLa cell cytotoxicity, dose response, cytotoxicity control for MgcRacGAP inhibitor project (AID 624300); assay type: functional
[26] = molecular target: T4, Rac GTPase-activating protein 1 (Homo sapiens, UniProt Q9H0H5); assay: MgcRacGAP GTPase-activating activity inhibitors, confirmation, biochemical, ADP Hunter fluorescence, primary and confirmatory (AID 624330); assay type: functional
T4 sequence (Q9H0H5 whole entry): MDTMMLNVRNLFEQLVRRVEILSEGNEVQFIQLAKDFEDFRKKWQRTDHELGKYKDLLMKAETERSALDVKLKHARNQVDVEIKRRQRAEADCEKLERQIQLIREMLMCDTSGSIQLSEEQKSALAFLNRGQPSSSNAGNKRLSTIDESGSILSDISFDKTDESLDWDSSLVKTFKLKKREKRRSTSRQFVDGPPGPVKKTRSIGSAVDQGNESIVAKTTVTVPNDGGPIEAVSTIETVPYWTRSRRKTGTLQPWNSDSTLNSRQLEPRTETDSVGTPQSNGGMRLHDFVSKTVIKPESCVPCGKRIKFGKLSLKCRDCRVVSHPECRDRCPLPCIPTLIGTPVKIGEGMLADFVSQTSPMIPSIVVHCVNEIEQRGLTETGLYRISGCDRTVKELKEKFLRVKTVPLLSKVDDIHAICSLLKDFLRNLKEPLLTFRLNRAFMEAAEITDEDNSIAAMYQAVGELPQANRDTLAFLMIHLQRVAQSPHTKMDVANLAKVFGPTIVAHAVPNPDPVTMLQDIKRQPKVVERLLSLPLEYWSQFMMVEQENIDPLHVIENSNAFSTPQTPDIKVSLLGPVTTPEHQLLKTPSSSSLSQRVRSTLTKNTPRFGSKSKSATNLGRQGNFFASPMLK

Protein Tat = Protein Tat (Human immunodeficiency virus type 1 group M subtype B (isolate HXB2)(HIV-1), UniProt P04608); assay type: functional;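 further: tat binding to TAR RNA read out by fluorescence polarization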
Chain of Protein Tat (P04608 whole entry): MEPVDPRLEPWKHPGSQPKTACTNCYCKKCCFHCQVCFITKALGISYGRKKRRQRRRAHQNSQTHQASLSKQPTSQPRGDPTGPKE

[27] = THP-1 cell cytotoxicity, dose response, cytotoxicity control for Vif-APOBEC3G degradation inhibitor project, THP-1 cells (AID 1117359); assay type: functional; details: Human immunodeficiency virus 1, THP-1
[28] = Vero cell cytotoxicity, dose response, cytotoxicity control for Vif-APOBEC3G degradation inhibitor project, Vero cells (AID 1117358); assay type: functional; details: Human immunodeficiency virus 1, Vero

Chain of Cytochrome P450 2C19 (P33261 whole entry): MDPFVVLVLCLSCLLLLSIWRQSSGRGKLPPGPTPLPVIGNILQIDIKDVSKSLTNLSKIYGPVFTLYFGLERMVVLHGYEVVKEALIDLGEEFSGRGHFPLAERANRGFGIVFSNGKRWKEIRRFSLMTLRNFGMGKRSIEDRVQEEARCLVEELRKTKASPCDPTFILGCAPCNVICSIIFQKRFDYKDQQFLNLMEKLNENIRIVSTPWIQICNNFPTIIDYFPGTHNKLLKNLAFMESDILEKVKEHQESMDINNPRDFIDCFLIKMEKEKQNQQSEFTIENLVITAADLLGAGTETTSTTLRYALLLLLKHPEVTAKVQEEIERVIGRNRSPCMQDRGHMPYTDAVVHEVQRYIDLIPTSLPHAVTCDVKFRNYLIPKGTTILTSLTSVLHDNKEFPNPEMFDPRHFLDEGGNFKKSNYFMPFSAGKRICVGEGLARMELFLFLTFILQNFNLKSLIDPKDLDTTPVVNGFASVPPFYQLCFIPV

What does the source list for CC1CCC2C(=O)N3C(CCC(C)[C@@H]3c3ccc(Br)cc3)C(=O)N2C1c1ccc(Br)cc1 (some centres not stated)?
AC50 (Cytochrome P450 2C19): 3.98 µM (inconclusive); AC50 (Cytochrome P450 3A4): 5.01 µM (inconclusive)

With O=[N+]([O-])/C=C/c1cn(Cc2ccccc2)c2ccccc12 as the molecule, how does the CC50 [1] read?
Its CC50 is > 40 µM (active).

What about the EC50 [2] of the same molecule?
Its EC50 is 15.8 µM (active).

And the EC50 [3]?
Its EC50 is 13.2 µM (active).

What about the IC50 (Ephrin type-A receptor 4) of the same molecule?
Its IC50 is 2.3 µM (active).

What about the AC50 [4] of the same molecule?
Its AC50 is 6.43 µM (active).

What about the AC50 (Cytochrome P450 2D6) of the same molecule?
Its AC50 is 15.8 µM (inconclusive).

With O=C(COC(=O)c1ccccc1C(=O)c1ccc(Cl)c([N+](=O)[O-])c1)NC1CCCCCC1 as the molecule, how does the EC50 (HEK293 [5]) read?
Its EC50 is 3.78 µM (active).

And the EC50 [6]?
The EC50 was 12.4 µM (not active).

What about the EC50 (BJ [7]) of the same molecule?
Its EC50 is 4.41 µM (active).

What about the IC50 (HEK293 [8]) of the same molecule?
The IC50 was 1.9 µM (active).

What about the EC50 (BJ [9]) of the same molecule?
The EC50 was 9.86 µM (inconclusive).

What about the IC50 (HEK293 [10]) of the same molecule?
Its IC50 is 18.3 µM (active).

What about the EC50 [11] of the same molecule?
The EC50 was > 20 µM (inactive).

What about the IC50 (HEK293 [12]) of the same molecule?
The IC50 was 3.13 µM (active).

What about the IC50 (HEK293 [13]) of the same molecule?
Its IC50 is > 20 µM (inactive).

What about the EC50 (BJ [14]) of the same molecule?
Its EC50 is 4.91 µM (inconclusive).

And the EC50 [15]?
The EC50 was 4.47 µM (active).

What about the EC50 [16] of the same molecule?
Its EC50 is 42.3 µM (inactive).

What about the IC50 (Melanocortin receptor 4) of the same molecule?
The IC50 was 26.6 µM (inactive).

What about the IC50 [17] of the same molecule?
Its IC50 is > 64.6 µM (inactive).

What does the source list for C[C@@H]1CN(C2=C(Cl)C(=O)N(c3cccc([N+](=O)[O-])c3)C2=O)CCN1?
IC50 [18]: > 100 µM (not active); IC50 (Bcl-2-related protein A1 [19]): 9.03 µM (active); IC50 (Bcl-2-related protein A1 [20]): 12.7 µM (active)

For CCCCCCNC(=O)c1cc(-c2ccco2)nc2ccccc12, which IC50 (Estrogen receptor beta) is on record?
The IC50 was 2.6 µM (active).

And the IC50 [21]?
The IC50 was 13.6 µM (active).

What about the IC50 [22] of the same molecule?
Its IC50 is 16 µM (active).

What about the IC50 [23] of the same molecule?
Its IC50 is 5.1 µM (active).

For CCOc1cccc(CNc2ccc(O)cc2)c1OCc1ccc(Cl)cc1Cl, which IC50 [24] is on record?
The IC50 was 8.34 µM (not active).

What about the “Absolute IC50 (XBP1)” value (X-box-binding protein 1) of the same molecule?
The value was 10 µM.

What about the CC50 (Vero) of the same molecule?
Its CC50 is 36.4 µM (active).

And the CC50 [25]?
The CC50 was 85.7 µM (active).

And the IC50 [26]?
The IC50 was 118 µM (active).

What about the IC50 (Protein Tat) of the same molecule?
Its IC50 is > 100 µM (inconclusive).

And the CC50 [27]?
The CC50 was 30.4 µM (active).

And the CC50 [28]?
Its CC50 is > 40 µM (active).
